Consider 63 compounds from PMC12040169 (PLOS Biology, 2025).

The nature of this data set: in vitro. The note with it: human, hela cells.

For `Fc1ccc(NC(=S)NCC2CC2)c(F)c1` [CBK011398], the viability (usually a read-out of living cells in per cent, often relative to untreated cells) at 28.5 h, 10 µM (% viability) came to 100%.
Still for that read-out and setting: for `CN1CC(CO)CCC1Cc1c[nH]c2ccccc12` (stereo not drawn) [CBK011468] the value was 92.4%.
In the case of `CC(C)N(CCc1cc2ccccc2o1)C(C)C` [CBK011518C], where the note is “% viability, bulk resorufin, single well”, the viability at 28.5 h, 10 µM stood at 113%.
On to `CCC1=C(C)C(=O)N(C(=O)NCCc2ccc(S(=O)(=O)NC(=O)NC3CCC(C)CC3)cc2)C1` (stereo not drawn) [CBK011561], for which the viability at 28.5 h, 10 µM (% viability) stood at 93.2%.
In the case of `CCCCC[C@H](O)CCC1[C@H](O)C[C@@H]2Cc3c(cccc3OCC(=O)O)C[C@H]12` (stereo partly drawn) [CBK011575], the viability at 28.5 h, 10 µM (% viability) is 98.3%.
On the same count and under the same terms, then `Nc1nnc(-c2cccc(Cl)c2Cl)c(N)n1` [CBK011590], with 85.8%; and `NC(=O)CN1CC(O)CC1=O` (stereo not drawn) [CBK011649], with 86.1%; and `CC(C)(C)NCC(O)COc1cccc2c1C[C@H](O)[C@H](O)C2` (stereo partly drawn) [CBK011678], with 102%.
On the same count and under the same terms, then `CN1C2CCC1CC(OC(c1ccccc1)c1ccccc1)C2` (stereo not drawn) [CBK011710G], with 99.6%; and `c1ccc(C2CCCNC2)cc1` (stereo not drawn) [CBK011753], with 100%.
Turning to `COc1cnc(C(=O)NCCc2ccc(S(=O)(=O)NC(=O)NC3CCCCC3)cc2)cn1` [CBK011761], the viability at 28.5 h, 10 µM (% viability) is 104%.
The same measure, in the same setting: then `CC1Cc2cc(C(O)(CCN(C)C)c3ccccc3)ccc2O1` (stereo not drawn) [CBK011764], with 110%; and `Cn1c(C(=O)NCCc2ccc(S(=O)(=O)NC(=O)NC3CCCCC3)cc2)cc2ccccc21` [CBK011876], with 128%.
On the same count and under the same terms, then `O=C(NCCc1ccc(S(=O)(=O)NC(=O)NC2CCCCC2)cc1)NC1CCCCC1` [CBK011926], with 88.4%; and `CN(C)CC(Oc1ccccc1)C(=O)c1ccccc1` (stereo not drawn) [CBK011935C], with 101%; and `COc1ccc2nc3cc(Cl)ccc3c(NCCO)c2c1` [CBK011939], with 43.8%.
On the same count and under the same terms, then `CCCOc1ccc(C(=O)C(CN(CC)CC)Oc2ccccc2)cc1` (stereo not drawn) [CBK011944C], with 94.7%; and `C[N+](C)(C)Cc1ccccc1` [CBK011977I], with 109%.
As to `O=P(O)(O)CCCc1ccccc1` [CBK012021], the viability at 28.5 h, 10 µM was 80.5%.
As for `CC(N)Cc1cn(C)c2ccccc12` (stereo not drawn) [CBK012030C], the viability at 28.5 h, 10 µM came out at 83.8%.
Consider `CCN(CC)CC(C)C(O)(c1ccccc1)c1ccccc1` (stereo not drawn) [CBK012065C], for which the viability at 28.5 h, 10 µM (% viability) was 95%.
The same measure, in the same setting: then `O=C(Nc1ccccc1C(=O)O)c1ccccc1O` [CBK012116], with 89%.
On the same count and under the same terms, for `N=C(N)NCCCc1c[nH]c2ccccc12` [CBK012139G] the value was 101%; for `CCN(CC)CC(C)C(O)(c1ccc(Cl)cc1)c1ccc(Cl)cc1` (stereo not drawn) [CBK012146C], 103%; for `CN(C)C(=O)Cc1ccc(-c2ccccc2)cc1` [CBK012162], 94.2%.
For `Cc1cc2nc(CC(=O)NN)[nH]c2cc1C` [CBK012180], under “% viability”, the viability at 28.5 h, 10 µM is 89.3%.
Still for that read-out and setting: then `CC1OC(n2ccc(=S)[nH]c2=O)C(O)C1O` (stereo not drawn) [CBK012231], with 103%; and `CC(CNC1CCCC1)C(O)(c1ccccc1)c1ccccc1` (stereo not drawn) [CBK012237C], with 101%; and `Cc1ccccc1Nc1ccccc1C(=O)O` [CBK012249], with 113%.
Same read-out and setting: then `O=C(O)c1ccnc2ccccc12` [CBK012261], with 88.2%; and `CC(c1ccc(Cl)cc1)N(CCN(C)C)c1ccccn1` (stereo not drawn) [CBK012273F], with 100%; and `COc1cc(C(=O)NN)cc(OC)n1` [CBK012275], with 83.7%.
Still for that read-out and setting: for `O=C(O)C(Cc1ccc(O)cc1)c1ccccc1` (stereo not drawn) [CBK012287] the value was 84.7%.
Take `OC1(c2ccccc2)CCNCC1` [CBK012290]: the viability at 28.5 h, 10 µM (% viability) worked out at 101%.
Still for that read-out and setting: for `Cc1ccccc1SCC(C)C(=O)O` (stereo not drawn) [CBK012292] the value was 83%.
`CC1=C(c2ccc(OC(C)(C)CN3CCCC3)cc2)C(C)CCC1` (stereo not drawn) [CBK012357C]: the viability at 28.5 h, 10 µM (% viability) was determined as 86.1%.
Same read-out and setting: for `Oc1ccc(Nc2ccnc3cc(Cl)ccc23)cc1` [CBK012365C] the value was 93.5%; for `Cc1nncn1-c1ccc(Cl)cc1C(=O)c1ccccc1Cl` [CBK012372], 101%.
The same measure, in the same setting: for `O=C(c1ccccc1)c1cc(Cl)ccc1-n1ccnc1` [CBK012383] the value was 105%.
Same read-out and setting: for `Nc1ncncc1-c1ccc(Cl)cc1` [CBK012407] the value was 90.9%; for `CC(C)(Oc1cccc2ccccc12)C(=O)O` [CBK012409], 94.5%.
Take `CCOC(=O)Cn1c(C)nc(C)cc1=O` [CBK012419]: where the note is “% viability”, the viability at 28.5 h, 10 µM turned out to be 103%.
On the same count and under the same terms, then `Cc1cnoc1-c1cc(Br)cc(Br)c1O` [CBK012420], with 104%; and `COC(=O)c1cc(Cl)c2ccccc2n1` [CBK012428], with 80.4%.
As for `Cc1n[nH]c(=S)n1-c1ccc(Cl)cc1` [CBK012457], the viability at 28.5 h, 10 µM (% viability) worked out at 94.5%.
Consider `O=C(c1ccc(Nc2ccnc3cc(C(F)(F)F)ccc23)cc1)N1CCC(O)(c2cccc(C(F)(F)F)c2)CC1` [CBK012467], for which the viability at 28.5 h, 10 µM (% viability) was found to be 91.6%.
The same measure, in the same setting: then `CN(C)[C@H]1CC[C@@H](Cc2ccccc2)C[C@@H]1NC(=O)c1ccc(Cl)c(Cl)c1` [CBK012488], with 97.3%; and `CC(C)(C)Cc1ccc(CC(=O)O)c(OCc2ccccc2)n1` [CBK012508], with 92.6%.
On the same count and under the same terms, for `O=C(O)CCCCc1nn(-c2ccc(Cl)c(Cl)c2)c2c1CCC2` [CBK012529] the value was 97.5%.
Same read-out and setting: for `CC(=O)c1c(C)oc(C)c1C(C)=O` [CBK012535] the value was 88.2%; for `CN(C)CCCC(O)(c1ccccc1)c1ccccc1` [CBK012599], 109%.
Take `O=P(O)(O)Cc1ccccc1-c1ccccc1` [CBK012659]: under “% viability”, the viability at 28.5 h, 10 µM amounted to 111%.
The same measure, in the same setting: then `CC(C)Nc1cccnc1N1CCN(C(=O)c2cc3cc(NS(=O)(=O)CCc4ccncc4)ccc3[nH]2)CC1` [CBK012661], with 95.8%; and `O=c1c(Cl)nc(Cl)c(C2CCCCC2)n1Cc1ccccc1` [CBK012671], with 87.6%.
For the compound `CC(C)(C)Nc1cc(NCCc2ccccc2)nc(N)n1` [CBK012708], under “% viability”, the viability at 28.5 h, 10 µM turned out to be 86.8%.
The same measure, in the same setting: for `COC(=O)c1cccc(CCC2CC(=O)C=C(O)C2)c1` (stereo not drawn) [CBK012720] the value was 93.7%; for `NC(=O)C(NCc1ccccc1)c1ccc(Cl)cc1` (stereo not drawn) [CBK012748], 84%.
The same measure, in the same setting: then `CN(CC(=O)O)C(=O)OCc1ccccc1` [CBK012752], with 101%; and `c1ccc(COc2ccc(N3CCNCC3)cc2)cc1` [CBK012776C], with 83.5%.
On the same count and under the same terms, then `COc1ccc2[nH]cc(CC3CCNCC3)c2c1` [CBK012779], with 104%; and `CC(=O)Nc1ccc(CNc2ccc(Cl)cc2)cc1` [CBK012799], with 104%.
With `Cc1cccc(-n2c(C3CCCNC3=O)n[nH]c2=S)c1` (stereo not drawn) [CBK012842], the viability at 28.5 h, 10 µM (% viability) was 89%.
The same measure, in the same setting: for `CCOC(=O)Cc1csc(NS(=O)(=O)c2cc(C)c(Cl)cc2Cl)n1` [CBK012872] the value was 91.3%.
